PMC5864730, “Peptide ion channel toxins from the bootlace worm, the longest animal on Earth” (Scientific Reports, 2018)
Positions of bridges follow the written chain, without caps; N, C: chain ends. Non-standard residues stand in square brackets, D forms with d. No end group written: not given here. Hyp = O=C(O)[C@@H]1C[C@@H](O)CN1

Key:
BgNaV1 = conditions: cited from earlier work
Excerpt: (§1) The α-1 induced alterations of gating kinetics resemble the effects of other peptide toxins known to be binding to the so-called neurotoxin binding site 3[18],[19]. Such toxins trap the voltage-sensing segment S4 of domain 4 in its inward or dea ...

DmNaV1 = conditions: cited from earlier work
Excerpt: as §1

[1] = molecular target: Blattella germanica voltage-gated sodium channel BgNaV1 (Blattella germanica) (UniProt O01307)
[2] = molecular target: voltage-gated sodium channel NaV1.6 (not stated (mNaV1.6 in the methods, human in the results)) (UniProt Q9WTU3)

| Molecule | inhibition of inactivation (BgNaV1) | inhibition of inactivation (DmNaV1) | two-electrode voltage clamp on oocytes: concentration-response curve of the toxin-induced modulation of BgNaV1 currents, EC50 [1] [nM] | two-electrode voltage clamp on oocytes: concentration-response curve on NaV1.6, EC50 (Figure S4C) [2] [nM] |
| --- | --- | --- | --- | --- |
| anthopleurin A: sea anemone toxin | complete inhibition of the inactivation | complete inhibition of the inactivation | – | – |
| ATX-II: sea anemone toxin | complete inhibition of the inactivation | complete inhibition of the inactivation | – | – |
| GCIATGSFCTLSKGCCTKNCGWNFKCN[Hyp][Hyp]NQK (disulfide 15-26, 2-16, 9-20) [nemertide α-1] | – | – | 8.6 | 800 |
